In series [1] the test system is THP-1. The experiment in a line: Cytotoxicity against human THP1 cells using cell count reagent SF. It is filed as cell-based.
Series [2] concerns THP-1. The series can be described thus: Immunomodulatory activity in human THP1 cells assessed as differentiation of monocyte to macrophage after 4 days by MTT assay. It counts as functional. To be noted: THP-1, 96 h, read-out: ED50 (the source's name).
The next series concerns Klebsiella aerogenes. The series can be described thus: Antimicrobial activity against Enterobacter aerogenes NCTC10006 by CLSI method. It is filed as functional.
For series [3], the system named is Staphylococcus aureus. The experiment in a line: Antimicrobial activity against Staphylococcus aureus FDA209P by CLSI method. It counts as functional.
The subject of series [4] is Staphylococcus epidermidis. The series can be described thus: Antimicrobial activity against Staphylococcus epidermidis […] by CLSI method. It counts as functional.
Series [5] concerns Acinetobacter calcoaceticus. The experiment in a line: Antimicrobial activity against Acinetobacter calcoaceticus IFO2552 by CLSI method. It counts as functional.
For series [6], the system named is Staphylococcus aureus. The series can be described thus: Antimicrobial activity against Staphylococcus aureus 8325 (pEP2104) by CLSI method. It is filed as functional.
Series [7] concerns Micrococcus luteus. The series can be described thus: Antimicrobial activity against Micrococcus luteus ATCC 21212 by CLSI method. It counts as functional.
The next series relates to Klebsiella pneumoniae. The series can be described thus: Antimicrobial activity against Klebsiella pneumoniae NCTN9632 by CLSI method. It is filed as functional.
Another series relates to Serratia marcescens. The experiment in a line: Antimicrobial activity against Serratia marcescens IFO12648 by CLSI method. It is filed as functional.
Series [8] has as its system Micrococcus luteus. The series can be described thus: Antimicrobial activity against Micrococcus luteus ATCC 9341 by CLSI method. It is filed as functional.
In the next series the test system is Escherichia coli. The series can be described thus: Antimicrobial activity against Escherichia coli NIHJ JC-2 by CLSI method. It is filed as functional.
The test system of series [9] is Staphylococcus aureus. The series can be described thus: Antimicrobial activity against Staphylococcus aureus Smith by CLSI method. It counts as functional.

In brackets after ≈: the same amount, converted by molar mass.

In turn, `CC[C@H]1OC(=O)O[C@@]1(C)[C@@H]1OC(=O)[C@H](C)C(=O)[C@H](C)[C@@H](O[C@@H]2O[C@H](C)C[C@H](N(C)C)[C@H]2O)[C@@]2(C)C[C@@H](C)[C@H](O2)[C@@H]1C` registered an Activity with THP-1 [1] of more than 100 µM. In the series on THP-1 [2], the EC50 stood at 26.3 µM.

As for `CC[C@@H](OC(C)=O)[C@@](C)(O)[C@@H]1OC(=O)[C@H](C)[C@@H](O[C@H]2C[C@@](C)(OC)[C@@H](O)[C@H](C)O2)[C@H](C)[C@@H](O[C@@H]2O[C@H](C)C[C@H](N(C)C)[C@H]2O)[C@@]2(C)C[C@@H](C)[C@H](O2)[C@@H]1C`, the Activity in the series with THP-1 [1] came to 100 µM. For the same compound, in the series on THP-1 [2], the EC50 amounted to 7.7 µM.

In turn, `CC[C@H]1OC(=O)O[C@@]1(C)[C@@H]1OC(=O)[C@H](C)C(=O)[C@H](C)[C@@H](O[C@@H]2O[C@H](C)C[C@H](N(C)C)[C@H]2OC(C)=O)[C@@]2(C)C[C@@H](C)[C@H](O2)[C@@H]1C` gave an Activity in the series on THP-1 [1] of more than 100 µM. Moreover, the EC50 in the series with THP-1 [2] stood at 27.9 µM.

`CC[C@H]1OC(=O)O[C@@]1(C)[C@@H]1OC(=O)[C@H](C)[C@@H](O)[C@H](C)[C@@H](O[C@@H]2O[C@H](C)C[C@H](N(C)C)[C@H]2OC(C)=O)[C@@]2(C)C[C@@H](C)[C@H](O2)[C@@H]1C` showed an Activity in the series on THP-1 [1] of more than 100 µM. Further, the EC50 in the series with THP-1 [2] stood at 55.7 µM.

On to `CC[C@H]1OC(=O)[C@H](C)[C@@H](O[C@H]2C[C@@](C)(OC)[C@@H](O)[C@H](C)O2)[C@H](C)[C@@H](O[C@@H]2O[C@H](C)C[C@H](N(C)C)[C@H]2O)[C@](C)(O)C[C@@H](C)C(=O)[C@H](C)[C@@H](O)[C@]1(C)O` [ERYTHROMYCIN], for which the minimum inhibitory concentration (MIC) – broadly, the lowest concentration found to suppress growth – is 128 µg/mL (≈ 174 µM) in the series on Klebsiella aerogenes; not above 0.5 µg/mL in the series with Staphylococcus aureus [3]; not above 0.5 µg/mL in series [4]; 4 µg/mL (≈ 5.45 µM) in series [5]; 64 µg/mL (≈ 87.2 µM) against Staphylococcus aureus [6]; 1 µg/mL (≈ 1.36 µM) in the series with Micrococcus luteus [7]. The minimum inhibitory concentration (MIC) is 32 µg/mL (≈ 43.6 µM) against Klebsiella pneumoniae; 128 µg/mL (≈ 174 µM) against Serratia marcescens; not above 0.5 µg/mL against Micrococcus luteus [8]; 64 µg/mL (≈ 87.2 µM) against Escherichia coli; not above 0.5 µg/mL in the series with Staphylococcus aureus [9].

Compound `CC[C@@H](O)[C@@](C)(O)[C@@H]1OC(=O)[C@H](C)[C@@H](O[C@H]2C[C@@](C)(OC)[C@@H](O)[C@H](C)O2)[C@H](C)[C@@H](O[C@@H]2O[C@H](C)C[C@H](N(C)C)[C@H]2OC(C)=O)[C@@]2(C)C[C@@H](C)[C@H](O2)[C@@H]1C` displayed an Activity in the series on THP-1 [1] of 100 µM. Also, in the series with THP-1 [2], the EC50 was found to be 16.1 µM.

`CC[C@@H]1O[C@@]1(C)[C@@H]1OC(=O)[C@H](C)[C@@H](O[C@H]2C[C@@](C)(OC)[C@@H](O)[C@H](C)O2)[C@H](C)[C@@H](O[C@@H]2O[C@H](C)C[C@H](N(C)C)[C@H]2O)[C@@]2(C)C[C@@H](C)[C@H](O2)[C@@H]1C` yielded an Activity in the series with THP-1 [1] of 100 µM. In addition, the EC50 in the series on THP-1 [2] came to 10.2 µM.

Compound `CO[C@]1(C)C[C@H](O[C@H]2[C@H](C)[C@@H](O[C@@H]3O[C@H](C)C[C@H](N(C)C)[C@H]3O)[C@@]3(C)C[C@@H](C)[C@H](O3)[C@H](C)[C@H](/C(C)=N/O)OC(=O)[C@@H]2C)O[C@@H](C)[C@@H]1O` yielded an Activity in the series with THP-1 [1] of more than 100 µM. Besides, in the series with THP-1 [2], the EC50 was 12.3 µM.

Consider `CC[C@@H](O)[C@@](C)(O)[C@@H]1OC(=O)[C@H](C)[C@@H](O[C@H]2C[C@@](C)(OC)[C@@H](O)[C@H](C)O2)[C@H](C)[C@@H](O[C@@H]2O[C@H](C)C[C@H](N(C)C)[C@H]2O)[C@@]2(C)C[C@@H](C)[C@H](O2)[C@@H]1C`, for which the MIC (in the series with Klebsiella aerogenes; with Staphylococcus aureus [3]; in [4]; in series [5]; in the series on Staphylococcus aureus [6]; with Micrococcus luteus [7]) was more than 128 µg/mL throughout. Further, the MIC in the series on Klebsiella pneumoniae was more than 128 µg/mL; against Serratia marcescens it was more than 128 µg/mL; in the series with Micrococcus luteus [8], 128 µg/mL (≈ 178 µM); with Escherichia coli, more than 128 µg/mL; against Staphylococcus aureus [9] it was more than 128 µg/mL. In addition, the Activity in the series on THP-1 [1] came to 100 µM. Further, in the series with THP-1 [2], the EC50 amounted to 17.1 µM.

Consider `CC[C@@H](O)[C@@](C)(O)[C@@H]1OC(=O)[C@H](C)[C@@H](O)[C@H](C)[C@@H](O[C@@H]2O[C@H](C)C[C@H](N(C)C)[C@H]2OC(C)=O)[C@@]2(C)C[C@@H](C)[C@H](O2)[C@@H]1C`, for which, in the series on THP-1 [1], the Activity was more than 100 µM. In addition, the EC50 in the series on THP-1 [2] is more than 100 µM.

`CO[C@]1(C)C[C@H](O[C@H]2[C@H](C)[C@@H](O[C@@H]3O[C@H](C)C[C@H](N(C)C)[C@H]3O)[C@@]3(C)C[C@@H](C)[C@H](O3)[C@H](C)[C@H](C(C)=O)OC(=O)[C@@H]2C)O[C@@H](C)[C@@H]1O`: the Activity in the series with THP-1 [1] is 100 µM. The EC50 in the series on THP-1 [2] was 12.3 µM.

These data come from ChEMBL document CHEMBL1777670, “Novel 12-membered non-antibiotic macrolides from erythromycin A; EM900 series as novel leads for anti-inflammatory and/or immunomodulatory agents” (Bioorg Med Chem Lett, 2011).
